Patent US6214563A, “Photon reducing agents for reducing undesired light emission in assays” (Aurora Biosciences Corporation, priority 1998, dated 2001)
Each block holds one compound with its values, some of them ahead of it.

How the values were obtained:
[1] = Effect of 50% methanol on coumarin fluorescence and phenol red absorbance (Example 2); assay type: physicochemical
Description: To further investigate the ability of a photon reducing agent to reduce fluorescence of a solution, fluorescence of a dye in the presence of a photon reducing agent was monitored in the presence and absence of methanol.
The fluorescence from a fluorophore in the presence of a photon reducing agent (phenol red) was determined in both aqueous buffer and aqueous buffer containing 50% (vol/vol) methanol. A 10 μM solution of 6-chloro-7-hydroxy coumarin-3-carboxylate was prepared in 39 mM phosphate buffer pH 7.5 and in a 1:1 mixture of same phosphate buffer and methanol. 1% (vol/vol) of a 100 mM aqueous Phenol Red stock solution was added to the solutions.

arthritis = settings: in vivo; cited from earlier work
[2] = Front face solution fluorescence of coumarin with and without phenol red (Example 1); settings: 1 mM phenol red; 0.5 μM coumarin; 50% methanol/phosphate buffer pH 7.5
Description: To investigate the ability of a photon reducing agent to reduce fluorescence of a solution, emission of a fluorophore from a sample was monitored in the presence and absence of a photon reducing agent.
Fluorescence from a solution of a blue fluorescent dye, 6-chloro-7-hydroxy coumarin 3-carboxylate, was determined in the presence and absence of a 1 mM phenol red as the photon reducing agent. A solution of 0.5 μM 6-chloro-7-hydroxy coumarin-3-carboxylate in solvent containing 50% (vol/vol) aqueous 39 mM phosphate buffer pH 7.5 and 50% (vol/vol) methanol was prepared. After taking a front face fluorescence spectrum of this solution on a Spex Fluorolog 2, 1% (vol/vol) of a 100 mM aqueous Phenol Red stock solution was added and another spectrum taken. Front face fluorescence refers to exciting the sample at a right angle to the sample surface and collecting emitted light (for example, from the excited region or emission region) at 12.5 degrees from such angle of excitation.

[3] = Absorption maxima of dyes (Table 1); assay type: physicochemical; settings: value printed in parentheses
[4] = Coumarin fluorescence as a function of path length (Example 6); settings: 10 μM coumarin + 1 mM phenol red; FIG. 10A
Description: To further investigate the ability of photon reducing agents to reduce fluorescence emitted from a solution, fluorescence emitted from a solution containing a fluorophore in the presence of a photon reducing agent was monitored as a function sample thickness.
A photon reducing agent, phenol red, was tested with a fluorophore, coumarin, as a function of sample thickness (path length). The experiment was conducted using a microscope equipped with epifluorescence. The liquid samples were drawn into low fluorescence capillary tubes of fixed path length (Vitro Dynamics, Rockaway N.J.) as indicated in the graphs. The following samples were evaluated:
The samples were excited using a 405/20 filter via a 425 dichroic reflector through a 20× objective (Zeiss 20× Fluar). Emitted light was filtered through a 460/50 filter and detected by an intensified CCD camera (Stanford Photonics, Menlo Park, Calif.). The detector output was converted to a 512×512 pixel eight-bit digital image. The data reflect the average intensity within a 20×20 pixel area within the capillary. The background intensity of the field was subtracted from all values.

[5] = Residual coumarin fluorescence with non-dye quenchers and particulates (Example 3); settings: ex. 395 nm, em. 460 nm; pH 7.5
T-cells = settings: cited from earlier work

- increase of fluorescence in 50% methanol buffer ([1]; absence of a photon reducing agent): about 30%
Compound: O=C(O)c1cc2cc(Cl)c(O)cc2oc1=O [6-chloro-7-hydroxy coumarin-3-carboxylate]

Compound: C[C@]12CCC(=O)C=C1CC[C@@H]1[C@@H]2[C@@H](O)C[C@@]2(C)[C@H]1CC[C@]2(O)C(=O)CO [Hydrocortisone]
- efficacy in rabbit knee arthritis model (arthritis): efficacious in this model

- decrease of absorbance at the emission wavelength of the coumarin in 50% methanol buffer ([1]; 50% methanol buffer): about 20%
- absorption maximum, value in parentheses [3]: 423 nm
Compound: O=S1(=O)OC(c2ccc(O)cc2)(c2ccc(O)cc2)c2ccccc21 [phenol red]
- reduction of front face fluorescence [2]: 70 fold
- attenuation of coumarin fluorescence [4]: significantly attenuated

Compound: NCCN(CCN)CCN [tris (2-aminoethyl) amine]
- concentration required (collisional quenchers) [5]: higher than 100 mM

Compound: cyclosporin A
- prevention of T-cell proliferation in vitro (T-cells): prevent proliferation of T-cells in vitro
